According to ChEMBL document CHEMBL3272235, “alpha-(2-Pyridine)benzyl aryl ketones as potential hypocholesteremic agents” (J Med Chem, 1978):

Key:
Rattus norvegicus [1] = assay: Hypocholesteremic activity in Sprague-Dawley rat assessed as change in serum cholesterol level at 25 mg/kg, po administered through intubation tube daily for 7 days measured 24 hrs post last dose relative to vehicle-treated control; type: functional
Rattus norvegicus [2] = assay: Estrogenic activity in ovariectomized female Sprague-Dawley rat assessed as change in uterus weight measured as micrograms of […]-estradiol that produce an estrogenic response equivalent to compound at 25 mg/kg, po administered through intubation tube daily for 7 days; type: ADME, organism-based; design: dose 25 mg/kg, route oral; conditions: in vivo, 168 h

## O=C(c1ccccc1Cl)C(c1ccccc1)c1ccccn1 (configuration not stated)
Rattus norvegicus [1]
  Activity: -56.9%
Rattus norvegicus [2]
  estradiol equivalent: 0.8 µg

## COc1ccc(C(=O)C(c2ccccc2)c2ccccn2)cc1Br (configuration not stated)
Rattus norvegicus [1]
  Activity: 11.3%

## O=C(c1ccc(F)cc1)C(c1ccccc1)c1ccccn1 (configuration not stated)
Rattus norvegicus [1]
  Activity: -1.3%

## O=C(c1ccccc1I)C(c1ccccc1)c1ccccn1 (configuration not stated)
Rattus norvegicus [1]
  Activity: -77.1%
Rattus norvegicus [2]
  estradiol equivalent: 0.7 µg

## Cc1ccc(C(=O)C(c2ccccc2)c2ccccn2)cc1 (configuration not stated)
Rattus norvegicus [1]
  Activity: 1.5%

## O=C(c1cccnc1)C(c1ccccc1)c1ccccn1 (configuration not stated)
Rattus norvegicus [1]
  Activity: -2.1%

## O=C(c1ccc2ccccc2c1)C(c1ccccc1)c1ccccn1 (configuration not stated)
Rattus norvegicus [1]
  Activity: 0%

## CC(C)(C)c1ccccc1C(=O)C(c1ccccc1)c1ccccn1 (configuration not stated)
Rattus norvegicus [1]
  Activity: -42%
Rattus norvegicus [2]
  estradiol equivalent: 0.29 µg

## O=C(c1ccc(I)cc1)C(c1ccccc1)c1ccccn1 (configuration not stated)
Rattus norvegicus [1]
  Activity: 0%

## O=C(c1ccccc1)C(c1ccccc1)c1ccccn1 (configuration not stated)
Rattus norvegicus [1]
  Activity: 2.5%

## Cc1cccc(C(=O)C(c2ccccc2)c2ccccn2)c1 (configuration not stated)
Rattus norvegicus [1]
  Activity: 13.2%

## O=C(c1cccc(OCc2ccccc2)c1)C(c1ccccc1)c1ccccn1 (configuration not stated)
Rattus norvegicus [1]
  Activity: 12.1%

## O=C(c1cccc(Br)c1)C(c1ccccc1)c1ccccn1 (configuration not stated)
Rattus norvegicus [1]
  Activity: 6.7%

## O=C(c1ccc(Cl)cc1)C(c1ccccc1)c1ccccn1 (configuration not stated)
Rattus norvegicus [1]
  Activity: -3.5%

## O=C(c1ccccc1Br)C(c1ccccc1)c1ccccn1 (configuration not stated)
Rattus norvegicus [1]
  Activity: -54.1%
Rattus norvegicus [2]
  estradiol equivalent: 0.87 µg

## O=C(c1cccc(Cl)c1)C(c1ccccc1)c1ccccn1 (configuration not stated)
Rattus norvegicus [1]
  Activity: 0%

## O=C(c1ccc(Br)cc1)C(c1ccccc1)c1ccccn1 (configuration not stated)
Rattus norvegicus [1]
  Activity: -22.8%

## O=C(c1ccc(OCc2ccccc2)cc1)C(c1ccccc1)c1ccccn1 (configuration not stated)
Rattus norvegicus [1]
  Activity: 9.3%

## O=C(c1cc(-c2ccccc2)nc2cc(Cl)ccc12)C(c1ccccc1)c1ccccn1 (configuration not stated)
Rattus norvegicus [1]
  Activity: 3.8%

## O=C(c1ccccc1Oc1ccccc1)C(c1ccccc1)c1ccccn1 (configuration not stated)
Rattus norvegicus [1]
  Activity: -15%

## COc1ccc(C(=O)C(c2ccccc2)c2ccccn2)cc1 (configuration not stated)
Rattus norvegicus [1]
  Activity: -15.7%

## COc1ccc(C(=O)C(c2ccccc2)c2ccccn2)cc1OC (configuration not stated)
Rattus norvegicus [1]
  Activity: 6.3%

## O=C(c1ccc2c(c1)OCO2)C(c1ccccc1)c1ccccn1 (configuration not stated)
Rattus norvegicus [1]
  Activity: 6.3%

## Cc1ccccc1C(=O)C(c1ccccc1)c1ccccn1 (configuration not stated)
Rattus norvegicus [1]
  Activity: -64.9%
Rattus norvegicus [2]
  estradiol equivalent: 0.82 µg

## CC(C)(C)c1ccc(C(=O)C(c2ccccc2)c2ccccn2)cc1 (configuration not stated)
Rattus norvegicus [1]
  Activity: 0%

## O=C(c1ccccc1F)C(c1ccccc1)c1ccccn1 (configuration not stated)
Rattus norvegicus [1]
  Activity: -30%
Rattus norvegicus [2]
  estradiol equivalent: 0.45 µg
